From publication PMC3566779 (The Journal of neuroscience : the official journal of the …, 2012)

Legend:
Wistar rats [1] = details: TRPV1 antagonist; ref Garami et al., 2010; Steiner et al., 2007; cited from earlier work
TRPV1 = TRPV1 (Homo sapiens, UniProt Q8NER1); assay: TRPV1 assay, capsaicin activation; format: cell-based
[2] = system: native TRPM8 channels in murine primary sensory neurons; assay: Ratiometric Ca2+ imaging of trigeminal or dorsal root ganglion neurons; format: cell-based, mouse
Wistar rats [3] = assay: Preferred Ta and abdominal Tb in rats, thermogradient setup; format: in vivo, rat
rat TRPM8 = rat TRPM8 (Rattus norvegicus, UniProt Q8R455); assay: Aequorin luminescence Ca2+ assay, CHO cells stably expressing rat TRPM8; format: cell-based
Trpm8+/+ mice = assay: Abdominal Tb in Trpm8+/+ mice, telemetry setup; format: in vivo, mouse; details: Ta 26°C
Wistar rats [4] = assay: BAT thermometry; format: in vivo, rat; details: 1 mg/kg i.v. at 32°C
Wistar rats [5] = assay: Colonic Tb and oxygen consumption in rats, respirometry setup; format: in vivo, rat; details: 6 mg/kg i.v. over 20 min, Ta 19°C
other TRP channels = assay: TRP selectivity assays in CHO cells; format: cell-based; details: read-out: IC50, block of other TRP channels
[6] = system: c-Fos expression in the lateral parabrachial nucleus; assay: Cold-induced c-Fos immunohistochemistry in the lateral parabrachial nucleus; format: in vivo, rat; details: rats, 6 mg/kg i.v. pretreatment, 2-h cold exposure (4°C)
Wistar rats [7] = assay: Deep; format: in vivo, rat
Trpm8−/− mice = assay: Abdominal Tb in Trpm8−/− mice, telemetry setup; format: in vivo, mouse; details: Ta 26°C
TRPV4 = TRPV4 (Homo sapiens, UniProt Q9HBA0); assay: TRPV4 aequorin assay, 4α-PDD activation; format: cell-based; details: read-out: IC50 for TRPV4; 1 μM 4α-PDD as agonist
TRPA1 = TRPA1 (Homo sapiens, UniProt O75762); assay: TRPA1 aequorin assay, allylisothiocyanate activation; format: cell-based; details: read-out: IC50 for TRPA1; 80 μM allylisothiocyanate as agonist
Chain of TRPA1 (O75762 whole entry, species assumed): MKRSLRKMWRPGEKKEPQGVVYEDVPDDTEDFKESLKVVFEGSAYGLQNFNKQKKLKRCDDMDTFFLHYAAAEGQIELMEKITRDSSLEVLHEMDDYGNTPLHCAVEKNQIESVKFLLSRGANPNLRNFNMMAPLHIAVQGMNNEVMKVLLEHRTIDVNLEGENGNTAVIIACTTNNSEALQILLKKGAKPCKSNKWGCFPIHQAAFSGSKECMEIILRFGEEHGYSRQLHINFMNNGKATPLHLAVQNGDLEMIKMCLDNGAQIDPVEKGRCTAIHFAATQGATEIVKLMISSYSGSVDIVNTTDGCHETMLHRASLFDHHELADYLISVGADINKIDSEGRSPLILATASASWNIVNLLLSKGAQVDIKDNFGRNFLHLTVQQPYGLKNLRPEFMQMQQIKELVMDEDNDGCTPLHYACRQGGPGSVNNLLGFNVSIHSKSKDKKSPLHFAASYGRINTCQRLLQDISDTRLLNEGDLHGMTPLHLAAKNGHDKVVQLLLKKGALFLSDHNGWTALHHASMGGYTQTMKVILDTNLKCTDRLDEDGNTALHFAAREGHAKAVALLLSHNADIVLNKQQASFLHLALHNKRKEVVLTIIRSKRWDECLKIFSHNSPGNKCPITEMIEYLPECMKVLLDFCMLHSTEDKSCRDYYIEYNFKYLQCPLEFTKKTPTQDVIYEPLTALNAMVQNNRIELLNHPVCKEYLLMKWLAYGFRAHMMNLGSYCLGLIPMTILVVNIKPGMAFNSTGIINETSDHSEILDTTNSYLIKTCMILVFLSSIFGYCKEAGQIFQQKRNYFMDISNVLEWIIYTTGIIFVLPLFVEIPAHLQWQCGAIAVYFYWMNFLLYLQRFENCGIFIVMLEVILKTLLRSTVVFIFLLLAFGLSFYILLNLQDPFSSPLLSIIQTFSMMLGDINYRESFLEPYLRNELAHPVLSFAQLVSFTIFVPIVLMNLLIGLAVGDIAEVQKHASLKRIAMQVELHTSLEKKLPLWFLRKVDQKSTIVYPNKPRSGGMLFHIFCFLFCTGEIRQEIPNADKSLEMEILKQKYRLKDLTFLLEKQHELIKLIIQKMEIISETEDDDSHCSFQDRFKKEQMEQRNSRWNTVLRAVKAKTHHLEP

Chain of rat TRPM8 (Q8R455 whole entry): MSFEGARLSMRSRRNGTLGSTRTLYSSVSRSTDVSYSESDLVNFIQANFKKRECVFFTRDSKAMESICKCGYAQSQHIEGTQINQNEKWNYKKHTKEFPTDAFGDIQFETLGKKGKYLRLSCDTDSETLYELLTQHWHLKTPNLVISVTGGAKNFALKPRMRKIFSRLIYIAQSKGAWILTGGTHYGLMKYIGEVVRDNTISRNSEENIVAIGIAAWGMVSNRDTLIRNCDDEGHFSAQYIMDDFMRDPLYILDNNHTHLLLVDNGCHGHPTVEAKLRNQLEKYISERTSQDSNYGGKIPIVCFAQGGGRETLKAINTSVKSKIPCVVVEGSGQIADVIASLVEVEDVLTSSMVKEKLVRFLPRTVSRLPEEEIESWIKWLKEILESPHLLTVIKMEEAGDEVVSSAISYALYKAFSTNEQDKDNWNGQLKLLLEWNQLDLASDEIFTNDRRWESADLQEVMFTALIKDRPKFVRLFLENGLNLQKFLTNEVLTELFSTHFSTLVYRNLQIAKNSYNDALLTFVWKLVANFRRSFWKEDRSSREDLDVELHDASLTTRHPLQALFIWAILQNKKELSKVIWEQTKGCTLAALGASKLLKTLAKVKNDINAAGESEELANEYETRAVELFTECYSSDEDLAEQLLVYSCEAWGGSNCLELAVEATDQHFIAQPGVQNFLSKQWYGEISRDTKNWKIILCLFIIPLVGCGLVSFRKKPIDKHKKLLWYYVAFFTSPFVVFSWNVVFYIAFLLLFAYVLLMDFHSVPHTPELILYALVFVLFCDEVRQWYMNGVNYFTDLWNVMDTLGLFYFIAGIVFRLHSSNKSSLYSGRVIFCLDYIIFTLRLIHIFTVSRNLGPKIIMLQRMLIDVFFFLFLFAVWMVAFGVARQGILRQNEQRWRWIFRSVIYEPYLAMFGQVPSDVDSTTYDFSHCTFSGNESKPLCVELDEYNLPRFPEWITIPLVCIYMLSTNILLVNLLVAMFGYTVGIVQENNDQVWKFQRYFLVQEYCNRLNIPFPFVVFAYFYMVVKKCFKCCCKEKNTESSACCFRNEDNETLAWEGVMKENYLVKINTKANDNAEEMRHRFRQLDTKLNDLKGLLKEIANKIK
Chain of TRPV1 (Q8NER1 whole entry, species assumed): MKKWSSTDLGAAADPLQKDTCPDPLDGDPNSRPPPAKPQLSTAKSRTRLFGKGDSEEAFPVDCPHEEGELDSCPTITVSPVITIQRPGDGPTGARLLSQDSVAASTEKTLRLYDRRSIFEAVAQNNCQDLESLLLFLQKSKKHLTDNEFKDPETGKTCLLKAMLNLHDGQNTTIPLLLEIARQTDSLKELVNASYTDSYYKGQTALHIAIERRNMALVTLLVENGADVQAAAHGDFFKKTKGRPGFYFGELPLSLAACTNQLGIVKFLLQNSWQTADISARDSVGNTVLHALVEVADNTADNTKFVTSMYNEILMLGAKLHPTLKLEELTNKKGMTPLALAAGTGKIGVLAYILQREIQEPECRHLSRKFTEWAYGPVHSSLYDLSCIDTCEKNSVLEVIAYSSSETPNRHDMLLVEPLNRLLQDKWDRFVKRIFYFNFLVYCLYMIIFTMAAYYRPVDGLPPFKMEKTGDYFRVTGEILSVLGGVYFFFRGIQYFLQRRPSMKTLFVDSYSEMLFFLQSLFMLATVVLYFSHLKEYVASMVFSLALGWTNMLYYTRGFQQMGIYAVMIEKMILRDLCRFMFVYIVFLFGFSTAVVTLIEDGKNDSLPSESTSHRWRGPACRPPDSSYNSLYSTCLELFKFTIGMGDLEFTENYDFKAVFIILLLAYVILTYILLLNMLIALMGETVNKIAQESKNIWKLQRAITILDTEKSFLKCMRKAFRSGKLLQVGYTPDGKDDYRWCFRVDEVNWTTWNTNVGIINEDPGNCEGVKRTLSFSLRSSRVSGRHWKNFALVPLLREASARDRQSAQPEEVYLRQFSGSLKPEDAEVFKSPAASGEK
Chain of TRPV4 (Q9HBA0 whole entry, species assumed): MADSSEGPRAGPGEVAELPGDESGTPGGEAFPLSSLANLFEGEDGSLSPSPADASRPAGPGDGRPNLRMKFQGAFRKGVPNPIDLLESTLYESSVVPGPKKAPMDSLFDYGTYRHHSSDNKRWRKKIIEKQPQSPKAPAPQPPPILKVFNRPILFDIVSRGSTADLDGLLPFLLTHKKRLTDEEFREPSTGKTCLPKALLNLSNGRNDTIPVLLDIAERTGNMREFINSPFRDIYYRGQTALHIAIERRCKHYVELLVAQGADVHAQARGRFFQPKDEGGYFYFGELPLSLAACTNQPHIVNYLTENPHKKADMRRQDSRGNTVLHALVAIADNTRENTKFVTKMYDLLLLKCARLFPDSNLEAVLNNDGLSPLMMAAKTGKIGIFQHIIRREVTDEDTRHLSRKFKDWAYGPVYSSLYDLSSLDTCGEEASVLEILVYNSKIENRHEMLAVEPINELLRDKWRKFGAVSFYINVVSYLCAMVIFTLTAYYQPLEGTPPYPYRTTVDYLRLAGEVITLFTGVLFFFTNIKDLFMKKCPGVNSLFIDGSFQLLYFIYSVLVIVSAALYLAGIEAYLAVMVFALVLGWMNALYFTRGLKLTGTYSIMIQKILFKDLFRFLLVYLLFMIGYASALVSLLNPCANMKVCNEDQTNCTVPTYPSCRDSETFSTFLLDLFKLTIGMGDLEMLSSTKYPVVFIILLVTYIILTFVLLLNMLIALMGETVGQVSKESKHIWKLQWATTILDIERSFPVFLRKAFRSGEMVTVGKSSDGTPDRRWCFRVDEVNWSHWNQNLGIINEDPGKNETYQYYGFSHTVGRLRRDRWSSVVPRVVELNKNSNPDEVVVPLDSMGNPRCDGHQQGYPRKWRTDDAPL

SMILES: O=C(/C=C/c1ccc(C(F)(F)F)nc1N1CCCCC1)Nc1cccc2c1CC(O)CC2 (stereo not drawn) [AMG0347]
- Thermal response (Wistar rats [1]): cause hyperthermia

SMILES: CC(C)(C)c1ccc(/C=C/C(=O)Nc2ccc3c(c2)OCCO3)cc1 [AMG9810, (E)-3-(4-t-butylphenyl)-N-(2,3-dihydrobenzo[b][1,4]dioxin-6-yl)acrylamide]
- IC50 (TRPV1): 86 nM

SMILES: COc1cc(CN(CCN)C(=O)c2cccs2)ccc1OCc1ccccc1.Cl [M8-B, N-(2-aminoethyl)-N-(4-(benzyloxy)-3-methoxybenzyl)thiophene-2-carboxamide hydrochloride]
- Number of cold-responsive neurons ([2]; M8-B 10 μM, cold (15°C), 19 ± 3% without treatment): 4 ± 1%
- Number of neurons responsive to menthol ([2]; menthol 250 μM): significantly decreased
- Effect on hyperthermic response to menthol (Wistar rats [3]; rats, M8-B 1 mg/kg i.v. pretreatment, p = 0.0009): significantly attenuated
- Effect on warmth-seeking response to menthol (Wistar rats [3]; rats, M8-B 1 mg/kg i.v. pretreatment, p = 0.096): tended to attenuate
- IC50 (rat TRPM8; IC50, inhibition of rat TRPM8 activation by cold, cold (10°C)): 7.8 ± 1.1 nM
- IC50 (rat TRPM8; IC50, inhibition of rat TRPM8 activation by icilin, icilin (1 μM)): 26.9 ± 12.1 nM
- Decrease in abdominal Tb (Trpm8+/+ mice; 6 mg/kg i.p.): ~ 0.8 °C
- BAT thermogenic response to cold (Wistar rats [4]; then 11°C, p = 0.105): tended to be less pronounced
- Nadir of Tb (Wistar rats [4]; then transferred to 11°C, at 150 min): ~ 36.2 °C
- VO2 within the first hour after infusion (Wistar rats [5]; from 19 ml/kg/min): ~15 mL/min/kg
- Colonic Tb within the first hour after infusion (Wistar rats [5]; from ~37.3°C): ~ 36.5 °C
- IC50 (other TRP channels): > 20000 nM
- Decrease in number of cold-induced c-Fos-positive neurons, LPBE ([6]; p = 0.027): 48%
- Decrease in number of cold-induced c-Fos-positive neurons, LPBC ([6]; p = 0.178): 41%
- Heat loss index (HLI) when Tb was 37.5°C (Wistar rats [7]; 1 mg/kg i.v. at 32°C then 21°C, controls HLI ~0): ~ 0.4
- Inter-treatment Tb difference (M8-B vs vehicle) (Wistar rats [7]; 1 mg/kg i.v. at Ta 32°C, then transferred to 11°C): exceeded 1 °C
- Inter-treatment Tb difference (M8-B vs vehicle) (Wistar rats [7]; 1 mg/kg i.v. at Ta 32°C, then transferred to 14°C): exceeded 1 °C
- Delay of the development of tail skin vasoconstriction (Wistar rats [7]; 1 mg/kg i.v. at Ta 32°C, then transferred to 21°C): ~ 5 min
- Effect on Tb (Wistar rats [7]; 1 mg/kg i.v. over 40 min at Ta 32°C, then transferred to 21°C): significant decrease in Tb
- Changes in Tb compared to vehicle (Wistar rats [7]; 1 mg/kg i.v., constant Ta 15°C): no significant changes
- Effect on Tb (Wistar rats [7]; 1 mg/kg i.v., constant Ta 19°C, data not shown): did not affect Tb
- Changes in Tb compared to vehicle (Wistar rats [7]; 1 mg/kg i.v., constant Ta 32°C): no significant changes
- Tail Tsk at which M8-B caused a decrease in Tb (threshold, two-line model) (Wistar rats [7]; 1 mg/kg i.v., experiments of Fig. 6B–H): ≤ 23.2 °C
- Effect on Tb (Wistar rats [7]; 2.5 mg/kg intracerebroventricularly, Ta 19°C): no effect
- Effect on Tb (Wistar rats [7]; 2.5 mg/kg intrathecally, Ta 19°C): no effect
- Decrease in colonic Tb compared to vehicle (Wistar rats [7]; 6 mg/kg i.v. over 20 min, Ta 19°C): ~ 0.9 °C
- Effect on Tb (Wistar rats [7]; 6 mg/kg intrathecally, Ta 19°C): effective in decreasing Tb
- Threshold intravenous dose for a significant decrease in deep Tb (Wistar rats [7]; i.v., Ta 19°C): 2.5 mg/kg
- Effect on abdominal Tb (Trpm8−/− mice; 6 mg/kg i.p.): not affected

SMILES: C=C(C)[C@]12C[C@@H](C)[C@@]34O[C@](Cc5ccccc5)(O[C@@H]1[C@@H]3C=C(COC(=O)Cc1ccc(O)c(OC)c1)C[C@]1(O)C(=O)C(C)=C[C@@H]41)O2 [RTX, resiniferatoxin, reference compound]
- Effect on abdominal Tb (Trpm8+/+ mice; 150 ng/kg i.p.): readily produces hypothermia
- Decrease in Tb (Trpm8−/− mice; 150 ng/kg i.p.): ~ 2.5 °C

SMILES: CC1CCC(C(C)C)C(O)C1 (stereo not drawn) [menthol, reference compound]
- Rise in Tb after menthol (Wistar rats [3]; rats pre-infused with vehicle, 10 g of 0.5% menthol ointment epidermally): ~ 1 °C

SMILES: Cl.Cl.Cl.Cl.Cl.Cl.N.N.N.N.N.N.N.N.N.N.N.N.N.N.[O-2].[O-2].[Ru+3].[Ru+3].[Ru+4] [ruthenium red]
- IC50 (TRPV4): 24 nM
- IC50 (TRPA1): 367 nM
